Measured values from patent US5464617A, “β-lactam compounds” (Hoffmann-La Roche Inc., priority 1994, dated 1995).
≈ marks a conversion by molar mass, not a printed value. Counter-ions that a name gives are not always drawn.

How the values were obtained:
[1] = tested on: E. coli 1346; test: Antibacterial activity of the products per se, serial dilution method in liquid medium (Test E); assay type: cell-based; conditions: Table 4; test E, product per se
Description: The antibacterial activity of the products per se is illustrated on the basis of Table 3 hereinafter, the minimum inhibitory concentration […] in vitro against E. coli 1346 being determined using the serial dilution method in liquid medium: […]

[2] = tested on: Citrobacter freundii 1982; test: MIC in vitro of a 1:4 combination of ceftriaxone with a compound of formula I (Test D); assay type: cell-based; conditions: Table 4; test D, 1:4 combination of ceftriaxone with the compound
Description: The minimum inhibitory concentration in vitro ([…]) of a 1:4 combination of ceftriaxone with a compound of formula I against Citrobacter freundii 1982 was measured and compiled in Table 2 hereinafter.

| MIC E. coli 1346 (E) [1] [µg/mL] | MIC C. freundii 1982 (D) [2] [µg/mL] | Compound |
| --- | --- | --- |
| 2 | 1 | O=C([O-])C[n+]1ccc(SCC2=C(C(=O)O)N3C(=O)[C@@H]4[C@H]3[C@H](C2)CN4C(=O)C(F)(F)F)cc1 [Example 52(b), (1aS,3aR,6bR)-[4-(2-Trifluoroacetyl-6-carboxy-1-oxo-1a,2,3,3a,4,6b-hexahydro-1H-2,6a-diazacyclobut[cd]inden-5-ylmethylsulphanyl)-pyridin-1-ylio]-acetate sodium salt] |
| 2 | 4 | Cn1nc(O)c(=O)nc1SCC1=C(C(=O)O)N2C(=O)[C@H]3NC[C@@H](C1)[C@H]32 [Example 53, (1aS,3aR,6bR)-5-(2,5-Dihydro-6-hydroxy-2-methyl-5-oxo-1,2,4-triazin-3-ylsulphanylmethyl)-1-oxo-1a,2,3,3a,4,6 b-hexahydro-1H-2,6a-diazacyclobut[cd]indene-6-carboxylic acid trifluoroacetate] |
| 32 | 0.25 | Cn1nc(O)c(=O)nc1SCC1=C(C(=O)O)N2C(=O)[C@@H]3[C@H]2[C@H](C1)CN3C(=O)Nc1ccc(O)cc1 [Example 54, (1aS,3aR,6bR)-5-(2,5-Dihydro-6-hydroxy-2-methyl-5-oxo-1,2,4-triazin-3-ylsulphanylmethyl)-2-(4-hydroxy-phenylcarbamoyl)-1-oxo-1a,2,3,3a,4,6b-hexahydro-1H-2,6a-diazacydobut[cd]indene-6-carboxylic acid sodium salt (1:2)] |
| 8 | 0.25 | Cc1nnc(SCC(=O)N2C[C@H]3CC(COC(N)=O)=C(C(=O)O)N4C(=O)[C@@H]2[C@@H]34)s1 [Example 58(e), (1aS,3aR,6bR)-5-Carbamoyloxymethyl-2-(5-methyl-1,3,4-thiadiazol-2-ylsulphanylacetyl)-1-oxo-1a,2,3,3a,4,6b-hexahydro-1H-2,6a-diazacyclobut[cd]indene-6-carboxylic acid sodium salt] |
| 2 | 1 | NC(=O)OCC1=C(C(=O)O)N2C(=O)[C@@H]3[C@H]2[C@H](C1)CN3CC(=O)Nc1ccc(O)cc1 [Example 59(a), (1aS,3aR,6bR)-5-Carbamoyloxymethyl-2-(4-hydroxyphenylcarbamoylmethyl)-1-oxo-I a,2,3,3a,4,6b-hexahydro-1H-2,6a-diazacyclobut[cd]indene-6-carboxylic acid sodium salt] |
| > 32 | 2 | CO/N=C(\C(=O)N1C[C@H]2CC(COC(N)=O)=C(C(=O)O)N3C(=O)[C@@H]1[C@@H]23)c1csc(N)n1 [Example 60, (Z)-(1aS,3aR,6bR)-2-[(2-Amino-thiazol-4-yl)-methoxyimino-acetyl]-5-carbamoyloxymethyl-1-oxo-1a,2,3,3a,4,6b-hexahydro-1H-2,6a-diazacyclobut[cd]indene-6-carboxylic acid] |
| 16 (≈ 40.6 µM) | 0.5 | CCOC(=O)N1C[C@H]2CC(CSc3nnnn3C)=C(C(=O)O)N3C(=O)[C@@H]1[C@@H]23 [Example 62, (1aS,3aR,6bR)-5-(1-Methyl-1H-tetrazol-5-ylsulphanylmethyl)-1-oxo-1a,2,3,3a,4,6b-hexahydro-1H-2,6a-diazacyclobut[cd]indene-2,6-dicarboxylic acid 2-ethyl ester] |
| 8 | 2 | Cc1nnc(SCC2=C(C(=O)O)N3C(=O)[C@H]4NC[C@@H](C2)[C@H]43)s1 [Example 63, (1aS,3aR,6bR)-5-(5-Methyl-1,3,4-thiadiazol-2-ylsulphanylmethyl)-1-oxo-1a,2,3,3a,4,6b-hexahydro-1H-2,6a-diazacyclobut[cd]indene-6-carboxylic acid trifluoroacetate] |
| > 32 | 0.5 | Cc1nnc(SCC2=C(C(=O)O)N3C(=O)[C@@H]4[C@H]3[C@H](C2)CN4C(=O)Nc2ccc(O)cc2)s1 [Example 64, (1aS,3aR,6bR)-2-(4-Hydroxy-phenylcarbamoyl)-5-(5-methyl-1,3,4-thiadiazol-2-ylsulphanylmethyl)-1-oxo-1a,2,3,3a,4,6b-hexahydro-1H-2,6a-diazacyclobut[cd]indene-6-carboxylic acid sodium salt] |
| 4 | 8 | O=C(O)C1=C(CSc2nc(-c3cccnc3)cs2)C[C@@H]2CN[C@@H]3C(=O)N1[C@H]23 [Example 66, (1aS,3aR,6bR)-1-Oxo-5-(4-pyridin-3-yl-thiazol-2-ylsulphanylmethyl)-1a,2,3,3a,4,6b-hexahydro-1H-2,6a-diazacyclobut[cd]indene6-carboxylic acid trifluoroacetate] |
| 2 | 0.5 | NC(=O)Cn1nnnc1SCC1=C(C(=O)O)N2C(=O)[C@H]3NC[C@@H](C1)[C@H]32 [Example 69, (1aS,3aR,6 bR)-5-(1-Carbamoylmethyl-1H-tetrazol-5-ylsulphanylmethyl)-1-oxo-1a,2,3,3a,4,61>hexahydro-1H-2,6a-diazacyclobut[cd]indene-6-carboxylic acid trifluoroacetate] |
| 1 | 1 | CNC(=O)Cn1nnnc1SCC1=C(C(=O)O)N2C(=O)[C@H]3NC[C@@H](C1)[C@H]32 [Example 73, (1aS,3aR,6bR)-5-(1-Methylcarbamoylmethyl-1H-tetrazol-5-ylsulphahylmethyl)-1-oxo-1a,2,3,3a,4,6b-hexahydro-1H-2,6 a-diazacyclobut[cd]indene-6-carboxylicacid trifluoroacetate] |
| 4 | 1 | O=C(O)C1=C(CSc2nc[nH]n2)C[C@@H]2CN[C@@H]3C(=O)N1[C@H]23 [Example 75, (1aS,3aR,6 bR)-1-Oxo-5-(1H-1,2,4-triazol-3-ylsulphanylmethyl)-1a,2,3,3a,4,6b-hexahydro-1H-2,6a-diazacyclobut[cd]indene-6-carboxylic acid trifluoroacetate] |
| 2 | 2 | O=C(Cn1nnnc1SCC1=C(C(=O)O)N2C(=O)[C@H]3NC[C@@H](C1)[C@H]32)Nc1ccc(O)cc1 [Example 77, (1aS,3aR,6bR)-5-[1-(4-Hydroxy-phenylcarbamoylmethyl)-1H-tetrazol-5-ylsulphanylmethyl]-1-oxo-1a,2,3,3a,4,6b-hexahydro-1H-2,6a-diazacyclobut[cd]indene-6-carboxylic acid trifluoroacetate] |
| 2 | 4 | O=C(Cn1nnnc1SCC1=C(C(=O)O)N2C(=O)[C@H]3NC[C@@H](C1)[C@H]32)NCCc1ccccc1 [Example 79, (1aS,3aR,6bR)-1-Oxo-5-[1-(phenethylcarbamoylmethyl)-1H-tetrazol-5-ylsulphanylmethyl]-1a,2,3,3a,4,6b-hexahydro-1H-2,6a-diazacyclobut[cd]indene-6-carboxylic acid trifluoroacetate] |
| 16 | 0.25 | [N-]=[N+]=NCC1=C(C(=O)O)N2C(=O)[C@@H]3[C@H]2[C@H](C1)CN3C(=O)Nc1ccc(O)cc1 [Example 82, (1aS,3aR,6bR)-5-Azidomethyl-2-(4-hydroxy-phenylcarbamoyl)-1-oxo-1a,2,3,3a,4,6b-hexahydro-1H-2,6a-diazacyclobut[cd]indene-6-carboxylic acid sodium salt] |
| 2 | 4 | CC(=O)NCC1=C(C(=O)O)N2C(=O)[C@H]3NC[C@@H](C1)[C@H]32 [Example 84, (1aS,3aR, 6bR)-5-Acetylaminomethyl-1-oxo-l a,2,3,3a,4,6b-hexahydro-1H-2,6a-diazacyclobut[cd]indene-6-carboxylic acid trifluoroacetate] |
| > 32 | 0.5 | CC(=O)NCC1=C(C(=O)O)N2C(=O)[C@@H]3[C@H]2[C@H](C1)CN3C(=O)Nc1ccc(O)cc1 [Example 85, (1aS,3aR,6bR)-5-Acetylaminomethyl-2-(4-hydroxy-phenylcarbamoyl)-1-oxo-1a,2,3,3a,4,6b-hexahydro-1H-2,6a-diazacyclobut[cd]indene-6-carboxylic acid sodium salt] |
| 16 | 2 | CC(=O)NCC1=C(C(=O)O)N2C(=O)[C@@H]3[C@H]2[C@H](C1)CN3C(=O)C(F)(F)F [Example 86, (1aS,3aR,6bR)-5-Acetylaminomethyl-1-oxo-2-trifluoroacetyl-1a,2,3,3a,4,6b-hexahydro-1H-2,6a-diazacyclobut[cd]indene-6-carboxylic acid sodium salt] |
| 16 | 4 | CS(=O)(=O)NCC1=C(C(=O)O)N2C(=O)[C@H]3NC[C@@H](C1)[C@H]32 [Example 87, (1aS,3aR,6bR)-5-Methylsulphonylaminomethyl-1-oxo-1a,2,3,3a,4,6b-hexahydro-1H-2,6a-diazacyclobut[cd]indene-6-carboxylic acid trifluoroacetate] |

| Compound | MIC E. coli 1346 (E) [1] [µg/mL] | MIC C. freundii 1982 (D) [2] [µg/mL] |
| --- | --- | --- |
| O=C(O)C1=C(CSc2ncccn2)C[C@@H]2CN[C@@H]3C(=O)N1[C@H]23 [Example 71, (1aS,3aR,6bR)-1-Oxo-5-(pyrimidin-2-ylsulphanylmethyl)-1a,2,3,3a,4,6b-hexahydro-1H-2,6a-diazacyclobut[cd]indene-6-carboxylic acid trifluoroacetate] | 8 | 2 |
| [N-]=[N+]=NCC1=C(C(=O)O)N2C(=O)[C@H]3NC[C@@H](C1)[C@H]32 [Example 81, (1aS,3aR,6bR)-5-Azidomethyl-1-oxo-1a,2,3,3a,4,6b-hexahydro-1H-2,6a-diazacyclobut[cd]indene-6-carboxylic acid trifluoroacetate] | 1 | 1 |
